Like-named read-outs stand apart in the source and are kept apart here.
Experiments:
murine Abcg2 [1] = assay: Tissue distribution in wild-type and Abcg2−/− male mice; format: in vivo; details: 10 mg/kg s.c.
Protocol: (§1) All in vivo experiments were carried out using wild-type and Abcg2^−/− mice aged between 8 and 17 weeks, all of >99% FVB/N genetic background, generated and gently supplied by A. H. Schinkel (Netherlands Cancer Institute). Mice were housed and handled complying with institutional and ARRIVE guidelines and European legislation (EU Directive 2010/63/EU for animal experiments). Additionally, experimental procedures were approved by the Animal Care and Use Committee of the University of León and the Junta de Castilla y León (ULE_011_2019).
(§2) For pharmacokinetic experiments, a single dose of nitroxynil at 10 mg/kg was administered subcutaneously to wild-type and Abcg2^−/− male mice (n = 4–5, for each time point). Distomicide® (250 mg/mL) commercial solution was dissolved in saline (sodium chloride 0.9%) and dosed at 200 μL per 30 g body weight. Blood samples were collected at different time points (0.5, 3, 4.5, 6, 24, 48 and 96 h) and heparinized blood samples were centrifugated for 15 min at 3000× g. Organs were also collected at 24 and 96 h after euthanasia. Linear trapezoidal rule was used to calculate the area under the plasma concentration–time curve (AUC) parameter.
(§3) Plasma, milk and tissue samples from each animal were individually processed and analyzed without pooling, while samples from transport assays were not processed. Tissue samples were homogenized in a mixture of 50% water/50% methanol HCl 0.5% (v/v); 1 mL solution per 0.1 g tissue. The entire amount of collected milk (74.7–295.1 mg) and 100 μL plasma and tissue homogenates were processed. To each sample, 10 μL of a nitrofurantoin solution (10 μg/mL for plasma and milk and 2 μg/mL for homogenized tissues) was added as an internal standard and 150 μL acetonitrile was used to precipitate the proteins. The mixture was vortexed horizontally for 15 min and centrifugated at 10,000× g for 5 min at 4 °C. Supernatant was transferred to a new tube and dried at 40 °C under N2 stream. Samples were reconstituted in 100 μL of mobile phase and 50 μL was injected into HPLC. Standards were subjected to the same procedures as samples.
(§4) Waters 2695 separation module and Waters 2998 UV photodiode array detector set at 270 nm were used for samples analysis. Chromatographic conditions for nitroxynil detection were based on previously described methods, with minor modifications. Chromatographic separation was achieved on a reverse-phase column (Synergy 4 μm Hydro–RP 80 Å, 250 × 4.60 mm; Phenomenex®, Torrance, CA, USA) using an isocratic binary mobile phase consisting of 25 mM potassium phosphate monobasic (KH2PO4), pH 4: acetonitrile (70:30 for culture samples and 80:20 for animal samples) at a flow rate of 1 mL/min. Autosampler and column temperature were 4 °C and 40 °C, respectively. Limit of detection (LOD) and quantification (LOQ) were calculated as previously described. For cell culture samples, LOD and LOQ were 0.003 μg/mL and 0.007 μg/mL, respectively. For in vivo samples, LOD was in the range of 0.01–0.07 μg/mL and LOQ in the range of 0.03–0.15 μg/mL.

murine Abcg2 [2] = test system: T1, murine Abcg2; assay: as above; format: in vivo; details: FVB/N, mouse, sc, wild-type male mice, 10 mg/kg s.c.
T1 construct: from tissue; host or cells: whole animal: wild-type vs Abcg2-/- mice, >99% FVB/N background
Protocol: as §1, §2, §3, §4

ovine ABCG2 = assay: Transepithelial transport assay in MDCK-II cells transduced with ovine ABCG2; format: in vitro ADME; details: sheep, MDCK-II oABCG2, nitroxynil 10 µM, no Ko143, read-out: Relative efflux transport ratio (BA/AB)
Protocol: Parental Madin–Darby canine kidney epithelial cells (MDCK–II) and their subclones transduced with murine (mAbcg2) and human (hABCG2) variants of ABCG2 were kindly provided by Dr. A. H. Schinkel (Netherlands Cancer Institute). Transduced MDCK–II cells with the ovine (oABCG2) and bovine (bABCG2) variants were previously generated by our group. Cells were cultured as described elsewhere.
Transepithelial transport assays were carried out as previously described with minor variations, using Hanks’ balanced salt solution (Sigma-Aldrich) supplemented with HEPES (25 mM), with or without Ko143 (1 μM), and containing or not nitroxynil 10 μM. […] At the end of the experiment, confluence of the monolayer was measured with the previously described Lucifer Yellow permeability test, with minor modifications. The appearance of nitroxynil in the opposite side of the well was measured by HPLC as later described. Active transport was expressed as relative efflux transport ratio (apically directed transport percentage divided by the basolaterally directed translocation percentage) at 4 h and referred to the initial concentration. […]
Waters 2695 separation module and Waters 2998 UV photodiode array detector set at 270 nm were used for samples analysis. […] Limit of detection (LOD) and quantification (LOQ) were calculated as previously described. […]

N#Cc1cc(I)c(O)c([N+](=O)[O-])c1 [nitroxynil]
Tissue concentration, spleen (murine Abcg2 [1]; Abcg2−/− male mice, 96 h): <LOQ | Kp at 96 h (murine Abcg2 [1]; FVB/N, mouse, kidney and plasma, sc, Abcg2−/− male mice, 96 h, read-out: Tissue/plasma ratio, kidney): 0.03 ± 0.01 | concentration at 24 h (murine Abcg2 [1]; FVB/N, mouse, kidney, sc, Abcg2−/− male mice, read-out: Tissue concentration, kidney): 8200 ± 1800 ng/g | concentration at 96 h (murine Abcg2 [1]; FVB/N, mouse, kidney, sc, Abcg2−/− male mice, 96 h, read-out: Tissue concentration, kidney): 3500 ± 300 ng/g | concentration at 24 h (murine Abcg2 [1]; FVB/N, mouse, liver, sc, Abcg2−/− male mice, read-out: Tissue concentration, liver): 1300 ± 300 ng/g | concentration at 96 h (murine Abcg2 [1]; FVB/N, mouse, liver, sc, Abcg2−/− male mice, 96 h, read-out: Tissue concentration, liver): 700 ± 200 ng/g | concentration at 24 h (murine Abcg2 [1]; FVB/N, mouse, small intestine, sc, Abcg2−/− male mice, read-out: Levels of nitroxynil in small intestine): 1600 ± 300 ng/mL | concentration at 24 h (murine Abcg2 [1]; FVB/N, mouse, small intestine, sc, Abcg2−/− male mice, read-out: Tissue concentration, small intestine): 1600 ± 300 ng/g | concentration at 96 h (murine Abcg2 [1]; FVB/N, mouse, small intestine, sc, Abcg2−/− male mice, 96 h, read-out: Tissue concentration, small intestine): 500 ± 100 ng/g | concentration at 24 h (murine Abcg2 [1]; FVB/N, mouse, spleen, sc, Abcg2−/− male mice, read-out: Accumulation in spleen): 2500 ± 300 ng/mL | concentration at 24 h (murine Abcg2 [1]; FVB/N, mouse, spleen, sc, Abcg2−/− male mice, read-out: Tissue concentration, spleen): 2500 ± 300 ng/g | concentration at 24 h (murine Abcg2 [1]; FVB/N, mouse, testis, sc, Abcg2−/− male mice, read-out: Concentration in testis): 4200 ± 800 ng/mL | concentration at 24 h (murine Abcg2 [1]; FVB/N, mouse, testis, sc, Abcg2−/− male mice, read-out: Tissue concentration, testis): 4200 ± 800 ng/g | concentration at 96 h (murine Abcg2 [1]; FVB/N, mouse, testis, sc, Abcg2−/− male mice, 96 h, read-out: Tissue concentration, testis): 1100 ± 200 ng/g | Brain levels (murine Abcg2 [1]; wild-type and Abcg2−/− male mice, 24 and 96 h, almost all samples): below LOQ | Kp at 96 h (murine Abcg2 [2]; kidney and plasma, 96 h, read-out: Tissue/plasma ratio, kidney): 0.06 ± 0.01 | concentration at 24 h (murine Abcg2 [2]; kidney, read-out: Tissue concentration, kidney): 5900 ± 1200 ng/g | concentration at 96 h (murine Abcg2 [2]; kidney, 96 h): 900 ± 100 ng/g | concentration at 24 h (murine Abcg2 [2]; liver, read-out: Tissue concentration, liver): 900 ± 300 ng/g | concentration at 24 h (murine Abcg2 [2]; small intestine, read-out: Levels of nitroxynil in small intestine): 1100 ± 200 ng/mL | concentration at 24 h (murine Abcg2 [2]; small intestine, read-out: Tissue concentration, small intestine): 1100 ± 200 ng/g | concentration at 24 h (murine Abcg2 [2]; spleen, read-out: Accumulation in spleen): 1400 ± 300 ng/mL | concentration at 24 h (murine Abcg2 [2]; spleen, read-out: Tissue concentration, spleen): 1400 ± 300 ng/g | concentration at 24 h (murine Abcg2 [2]; testis, read-out: Concentration in testis): 2600 ± 200 ng/mL | concentration at 24 h (murine Abcg2 [2]; testis, read-out: Tissue concentration, testis): 2600 ± 200 ng/g | efflux ratio at 4 h, 10 µM (ovine ABCG2): 27.4 ± 5.32

Source: publication PMC11054271, “ABCG2 Transports the Flukicide Nitroxynil and Affects Its Biodistribution and Secretion into Milk” (Pharmaceutics, 2024)
